From article PMC11766267 (International Journal of Molecular Sciences, 2025)

Tests used:
[1] = design: method as in PMID 15863696; conditions: cited from earlier work
HCT-116 = assay: MTT cytotoxicity assay, HCT-116; type: cell-based; conditions: Homo sapiens, 24 h treatment, mean ± SD of triplicate
Procedure: (§1) Subsequently, 100 µL of dimethyl sulfoxide was introduced to dissolve the insoluble formazan.

MDA-MB-231 = assay: MTT cytotoxicity assay, MDA-MB-231; type: cell-based; conditions: Homo sapiens, 24 h treatment, mean ± SD of triplicate
Procedure: as §1

HeLa = assay: MTT cytotoxicity assay, HeLa; type: cell-based; conditions: Homo sapiens, 24 h treatment, mean ± SD of triplicate
Procedure: as §1

MCF-7 = assay: MTT cytotoxicity assay, MCF-7; type: cell-based, human; conditions: Homo sapiens, MCF7, 24 h, 24 h treatment, mean ± SD of triplicate
Procedure: as §1

[2] = MTT cytotoxicity assay, normal cell line WI-38; type: cell-based, human; conditions: human, WI-38 cells (normal human lung fibroblasts), normal (non-cancer) cell line, 24 h treatment
Procedure: as §1

WI-38 = assay: MTT cytotoxicity assay, normal cell line WI-38; type: cell-based, human; conditions: normal (non-cancer) cell line, 24 h treatment
Procedure: as §1

[3] = test system: HCT-116, MDA-MB-231, HeLa, and MCF-7; assay: MTT cytotoxicity assay, ranges stated over several cell lines; type: cell-based; conditions: Homo sapiens, HCT-116, MDA-MB-231, HeLa, MCF-7; range; read-out: IC50 values, range over the cancer cell lines tested
How it was run: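 MTT read-out; insoluble formazan dissolved in 100 µL dimethyl sulfoxide before measurement.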

For `O=C(/C=C/c1ccc(O)cc1)c1ccccc1` [4-hydroxychacone], the “Concentration at which estrogenic activity is shown” value [1] is given as 0.0001 mol.

For `COc1cccc(C(=O)/C=C/c2ccc(OCc3ccccc3)c(OC)c2)c1` [Compound 4u, (E)-3-(4-(Benzyloxy)-3-methoxyphenyl)-1-(3-methoxyphenyl)prop-2-en-1-one], the IC50 (HCT-116) was 95.3 ± 4.9 µM, the IC50 (MDA-MB-231) was over 100 µM and the IC50 (HeLa) was over 100 µM. It also gave an IC50 (MCF-7) of 82.8 ± 4.1 µM, an IC50 at 24 h [2] of 40 to 40.1 µM and an IC50 (WI-38) of 39 ± 2.4 µM. It also gave an IC50 [3] of 55.6 to 82.8 µM.
